# Test results: US10266560B2, “Bile acid analogs as FXR/TGR5 agonists and methods of use thereof” (Enanta Pharmaceuticals, Inc., priority 2014, dated 2019)
# pEC50: −log10 of the molar value. Where two headings read alike, the source gives them in different places.
# Target: Human FXR (NR1H4) (Homo sapiens (Human), UniProt Q96RI1)
# Assay: Human FXR (NR1H4) Assay (Gal4 promoter driven luciferase reporter transactivation in CHO cells)
# Assay type: cell-based
# Excerpt: Assays Human FXR (NR1H4) Assay
# Determination of a ligand mediated Gal4 promoter driven transactivation to quantify ligand binding mediated activation of FXR. FXR Reporter Assay kit purchased from Indigo Bioscience (Catalogue number: IB00601) to determine the potency and efficacy of compound developed by Enanta that can induce FXR activation. The principle application of this reporter assay system is to quantify functional activity of human FXR. The assay utilizes non-human mammalian cells, CHO (Chinese hamster ovary) cells engineered to express human NR1H4 protein (referred to as FXR). Reporter cells also incorporate the cDNA encoding beetle luciferase which catalyzes the substrates and yields photon emission. Luminescence intensity of the reaction is quantified using a plate-reading luminometer, Envision. Reporter Cells include the luciferase reporter gene functionally linked to an FXR responsive promoter. Thus, quantifying changes in luciferase expression in the treated reporter cells provides a sensitive surrogate measure of the changes in FXR activity. […] The assay is according to the manufacturer's instructions. In brief, the assay was performed in white, 96 well plates using final volume of 200 ul containing cells with different doses of compounds. Retrieve Reporter Cells from −80° C. storage. Perform a rapid thaw of the frozen cells by transferring a 10 ml volume of 37° C. cell recovery medium into the tube of frozen cells. Recap the tube of Reporter Cells and immediately place it in a 37° C. water bath for 5-10 minutes. Retrieve the tube of Reporter Cell Suspension from the water bath. Sanitize the outside surface of the tube with a 70% alcohol swab, and then transfer it into the cell culture hood. Dispense 100 μl of cell suspension into each well of the 96-well Assay Plate. Transfer the plate into 37° C. incubator, allowing the cells adherent to the bottom of the well. Dilute compounds in Dilution Plate (DP), and administrate to cells at Assay Plate (AP). DMSO content of the samples was kept at 0.2%. Cells were incubated for additional 22 hours before luciferase activities were measured. Thirty minutes before intending to quantify FXR activity, remove Detection Substrate and Detection Buffer from the refrigerator and place them in a low-light area so that they may equilibrate to room temperature. Remove the plate's lid and discard all media contents by ejecting it into an appropriate waste container. Gently tap the inverted plate onto a clean absorbent paper towel to remove residual droplets. Cells will remain tightly adhered to well bottoms. Add 100 μl of luciferase detection reagent to each well of the assay plate. Allow the assay plate to rest at room temperature for at least 5 minutes following the addition of LDR. Set the instrument (Envision) to perform a single 5 second “plate shake” prior to reading the first assay well. Read time may be 0.5 second (500 mSec) per well.
# [1] = FXR agonistic potency range; CHO reporter cells expressing human NR1H4, 22 hours incubation; read-out: EC50
# [2] = efficacy normalized to chenodeoxycholic acid (CDCA) set as 100%
# Human FXR (NR1H4), sequence (Q96RI1 whole entry, the tested form may be a part): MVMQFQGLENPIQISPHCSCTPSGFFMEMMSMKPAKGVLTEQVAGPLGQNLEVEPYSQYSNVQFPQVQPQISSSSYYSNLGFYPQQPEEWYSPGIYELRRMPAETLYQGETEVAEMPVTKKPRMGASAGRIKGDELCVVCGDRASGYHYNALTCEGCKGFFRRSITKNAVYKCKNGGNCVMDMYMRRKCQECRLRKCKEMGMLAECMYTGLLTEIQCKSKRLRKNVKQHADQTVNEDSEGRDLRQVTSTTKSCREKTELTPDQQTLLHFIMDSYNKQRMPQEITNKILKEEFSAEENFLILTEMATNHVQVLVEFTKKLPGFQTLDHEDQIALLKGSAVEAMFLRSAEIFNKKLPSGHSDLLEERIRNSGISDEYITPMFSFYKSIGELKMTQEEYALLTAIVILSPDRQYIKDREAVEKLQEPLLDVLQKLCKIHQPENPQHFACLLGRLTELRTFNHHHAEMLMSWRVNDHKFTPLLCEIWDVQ
Compound,pEC50 [1],Efficacy (%) [2],"Emax (CHO, read-out: Efficacy (%))",other results
CC[C@@H]1C2C[C@H](O)CCC2(C)[C@H]2CCC3(C)C([C@H](C)CCC(=O)NS(=O)(=O)c4cc(F)cc(F)c4)CC[C@H]3[C@@H]2[C@@H]1O (some centres unmarked) [Example 464],,,,Emax (CHO; read-out: Efficacy (%)): 293%; pEC50 (read-out: EC50): 6.00 to 7.00
CCC1C(O)C2C3CCC(C(C)CCC(=O)NS(=O)(=O)C4CC4)C3(C)CCC2C2(C)CCC(O)CC12 (centres unmarked) [Example 11],6.00 to 7.00,315%,,
CC[C@@H]1C2C[C@H](O)CCC2(C)[C@H]2CCC3(C)C([C@H](C)CCC(=O)NS(=O)(=O)c4ccc(OC)c(OC)c4)CC[C@H]3[C@@H]2[C@@H]1O (some centres unmarked) [Example 478],,,,Emax (CHO; read-out: Efficacy (%)): 589%; pEC50 (read-out: EC50): 6.00 to 7.00
CC[C@@H]1C2C[C@H](O)CCC2(C)[C@H]2CCC3(C)C([C@H](C)CCC(=O)NS(=O)(=O)C4CCCCC4)CC[C@H]3[C@@H]2[C@@H]1O (some centres unmarked) [Example 468],> 7.00,,480%,
CC[C@H]1[C@@H](O)[C@@H]2[C@H](CC[C@]3(C)[C@@H]([C@H](C)CCC(=O)NS(C)(=O)=O)CC[C@@H]23)[C@@]2(C)CC[C@@H](O)C[C@@H]12 [Example 1],,,,Emax (CHO; read-out: Efficacy (%)): 254%; pEC50 (read-out: EC50): 6.00 to 7.00
CCC1C(O)C2C3CCC(C(C)CCC(=O)NS(=O)(=O)c4ccc(C)cc4)C3(C)CCC2C2(C)CCC(O)CC12 (centres unmarked) [Example 24],> 7.00,271%,,
CC[C@@H]1C2C[C@H](O)CCC2(C)[C@H]2CCC3(C)C([C@H](C)CCC(=O)NS(=O)(=O)c4ccc(Cl)cc4)CC[C@H]3[C@@H]2[C@@H]1O (some centres unmarked) [Example 480],> 7.00,,346%,
CC[C@@H]1C2C[C@H](O)CCC2(C)[C@H]2CCC3(C)C([C@H](C)CCC(=O)NS(=O)(=O)c4ccc([N+](=O)[O-])cc4)CC[C@H]3[C@@H]2[C@@H]1O (some centres unmarked) [Example 454],,,,Emax (CHO; read-out: Efficacy (%)): 353%; pEC50 (read-out: EC50): 6.00 to 7.00
CCCS(=O)(=O)NC(=O)CCC(C)C1CCC2C3C(O)C(CC)C4CC(O)CCC4(C)C3CCC12C (centres unmarked) [Example 6],6.00 to 7.00,295%,,
CC[C@@H]1C2C[C@H](O)CCC2(C)[C@H]2CCC3(C)C([C@H](C)CCC(=O)NS(=O)(=O)c4cccc([N+](=O)[O-])c4)CC[C@H]3[C@@H]2[C@@H]1O (some centres unmarked) [Example 452],,,292%,pEC50: 5.00 to 6.00
CC[C@@H]1C2C[C@H](O)CCC2(C)[C@H]2CCC3(C)C([C@H](C)CCC(=O)NS(=O)(=O)c4ccc5ccccc5c4)CC[C@H]3[C@@H]2[C@@H]1O (some centres unmarked) [Example 472],> 7.00,,580%,
CC[C@@H]1C2C[C@H](O)CCC2(C)[C@H]2CCC3(C)C([C@H](C)CCC(=O)NS(=O)(=O)c4ccc(C(F)(F)F)cc4)CC[C@H]3[C@@H]2[C@@H]1O (some centres unmarked) [Example 475],> 7.00,,590%,
CC[C@@H]1C2C[C@H](O)CCC2(C)[C@H]2CCC3(C)C([C@H](C)CCC(=O)NS(=O)(=O)c4ccc(OC(F)(F)F)cc4)CC[C@H]3[C@@H]2[C@@H]1O (some centres unmarked) [Example 473],> 7.00,,606%,
CCC1C(O)C2C3CCC(C(C)CCC(=O)NS(=O)(=O)c4ccccc4[N+](=O)[O-])C3(C)CCC2C2(C)CCC(O)CC12 (centres unmarked) [Example 23],6.00 to 7.00,280%,,
CC[C@@H]1C2C[C@H](O)CCC2(C)[C@H]2CCC3(C)C([C@H](C)CCC(=O)NS(=O)(=O)c4ccc5c(c4)OCO5)CC[C@H]3[C@@H]2[C@@H]1O (some centres unmarked) [Example 481],> 7.00,,359%,
CC[C@@H]1C2C[C@H](O)CCC2(C)[C@H]2CCC3(C)C([C@H](C)CCC(=O)NS(=O)(=O)c4nccs4)CC[C@H]3[C@@H]2[C@@H]1O (some centres unmarked) [Example 474],,,,Emax (CHO; read-out: Efficacy (%)): 463%; pEC50 (read-out: EC50): 5.00 to 6.00
CCC1C(O)C2C3CCC(C(C)CCC(=O)NS(=O)(=O)C4(C)CC4)C3(C)CCC2C2(C)CCC(O)CC12 (centres unmarked) [Example 12],6.00 to 7.00,331%,,

Compound,pEC50 [1],Efficacy (%) [2],"Emax (CHO, read-out: Efficacy (%))",other results
CC[C@@H]1C2C[C@H](O)CCC2(C)[C@H]2CCC3(C)C([C@H](C)CCC(=O)NS(=O)(=O)c4cccnc4)CC[C@H]3[C@@H]2[C@@H]1O (some centres unmarked) [Example 466],,,,Emax (CHO; read-out: Efficacy (%)): 258%; pEC50 (read-out: EC50): 5.00 to 6.00
CC[C@@H]1C2C[C@H](O)CCC2(C)[C@H]2CCC3(C)C([C@H](C)CCC(=O)NS(=O)(=O)c4ccc(C(C)(C)C)cc4)CC[C@H]3[C@@H]2[C@@H]1O (some centres unmarked) [Example 484],> 7.00,,349%,
CC[C@@H]1C2C[C@H](O)CCC2(C)[C@H]2CCC3(C)C([C@H](C)CCC(=O)NS(=O)(=O)c4cccc(OC(F)(F)F)c4)CC[C@H]3[C@@H]2[C@@H]1O (some centres unmarked) [Example 471],> 7.00,,467%,
CCC1C(O)C2C3CCC(C(C)CCC(=O)NS(=O)(=O)C(F)(F)F)C3(C)CCC2C2(C)CCC(O)CC12 (centres unmarked) [Example 10],5.00 to 6.00,244%,,
CC[C@@H]1C2C[C@H](O)CCC2(C)[C@H]2CCC3(C)C([C@H](C)CCC(=O)NS(=O)(=O)c4ccc(OC)c(F)c4)CC[C@H]3[C@@H]2[C@@H]1O (some centres unmarked) [Example 476],> 7.00,,593%,
CCC1C(O)C2C3CCC(C(C)CCC(=O)NS(=O)(=O)Cc4ccccc4)C3(C)CCC2C2(C)CCC(O)CC12 (centres unmarked) [Example 7],5.00 to 6.00,178%,,
CC[C@H]1[C@@H](O)[C@@H]2[C@H](CC[C@]3(C)[C@@H]([C@H](C)C[C@@H](C)C(=O)NS(=O)(=O)c4ccc(OC(F)(F)F)cc4)CC[C@@H]23)[C@@]2(C)CC[C@@H](O)C[C@@H]12 [Example 487],> 7.00,,287%,
CCC1C(O)C2C3CCC(C(C)CCC(=O)NS(=O)(=O)c4ccccc4C)C3(C)CCC2C2(C)CCC(O)CC12 (centres unmarked) [Example 20],6.00 to 7.00,348%,,
CC[C@H]1[C@@H](O)[C@@H]2[C@H](CC[C@]3(C)[C@@H]([C@H](C)CCC(=O)NS(=O)(=O)c4ccccc4)CC[C@@H]23)[C@@]2(C)CC[C@@H](O)C[C@@H]12 [Example 18],> 7.00,329%,,
CC[C@@H]1C2C[C@H](O)CCC2(C)[C@H]2CCC3(C)C([C@H](C)CCC(=O)NS(=O)(=O)c4cccc5ccccc45)CC[C@H]3[C@@H]2[C@@H]1O (some centres unmarked) [Example 483],> 7.00,,308%,
CCC1C(O)C2C3CCC(C(C)CCC(=O)NS(=O)(=O)C(C)(C)C)C3(C)CCC2C2(C)CCC(O)CC12 (centres unmarked) [Example 5],> 7.00,218%,,
CC[C@@H]1C2C[C@H](O)CCC2(C)[C@H]2CCC3(C)C([C@H](C)CCC(=O)NS(=O)(=O)c4cccc(Cl)c4)CC[C@H]3[C@@H]2[C@@H]1O (some centres unmarked) [Example 479],> 7.00,,572%,
CCC1C(O)C2C3CCC(C(C)CCC(=O)NS(=O)(=O)c4ccccc4F)C3(C)CCC2C2(C)CCC(O)CC12 (centres unmarked) [Example 22],6.00 to 7.00,259%,,
CCC1C(O)C2C3CCC(C(C)CCC(=O)NS(=O)(=O)C(C)C)C3(C)CCC2C2(C)CCC(O)CC12 (centres unmarked) [Example 3],6.00 to 7.00,289%,,
CC[C@@H]1C2C[C@H](O)CCC2(C)[C@H]2CCC3(C)C([C@H](C)CCC(=O)NS(=O)(=O)c4ccc(C#N)cc4)CC[C@H]3[C@@H]2[C@@H]1O (some centres unmarked) [Example 461],,,,Emax (CHO; read-out: Efficacy (%)): 283%; pEC50 (read-out: EC50): 6.00 to 7.00
CC[C@@H]1C2C[C@H](O)CCC2(C)[C@H]2CCC3(C)C([C@H](C)CCC(=O)NS(=O)(=O)c4ccc(F)cc4)CC[C@H]3[C@@H]2[C@@H]1O (some centres unmarked) [Example 453],,,,Emax (CHO; read-out: Efficacy (%)): 240%; pEC50 (read-out: EC50): 6.00 to 7.00
CC[C@@H]1C2C[C@H](O)CCC2(C)[C@H]2CCC3(C)C([C@H](C)CCC(=O)NS(=O)(=O)c4cccc(C(F)(F)F)c4)CC[C@H]3[C@@H]2[C@@H]1O (some centres unmarked) [Example 460],> 7.00,,291%,
